Data published in patent US20130096028A1, “CELL CAPABLE OF EXPRESSING TSLP CONSTANTLY AND AT HIGH LEVEL, AND METHOD FOR SCREENING FOR TSLP MODULATOR UTILIZING THE CELL” (TOHOKU UNIVERSITY, priority 2010, published 2013).

Columns and labels:
human TSLP mRNA = settings: human airway epithelial cell lines; cited from earlier work
[1] = test system: TSLP production of KCMH-1 cell; assay: TSLP production of KCMH-1 cells, TSLP in culture supernatant quantified by ELISA; assay type: cell-based, mouse; settings: BAY11-7082 10 μM, 24 hours, ELISA (FIG. 5)
Experimental: The KCMH-1 cells were suspended at a concentration of 1×10^5 cells/ml in an MEMU medium containing 10% FBS. 0.5 ml of the cell suspension was inoculated to each well of a 24-well cluster dish. 24 hours later, the medium was removed, and the cells were washed with phosphate-buffered saline (PBS). Then, 0.5 ml of an MEMU medium containing 10% FBS and each concentration of dexamethasone (0.1 or 1 μM) or FK506 ([…]) was added to the cells. 24 hours later, the culture solution was collected, and TSLP in the supernatant was quantified by ELISA (FIG. 2).
The KCMH-1 cells were suspended at a concentration of 1×10^5 cells/ml in an MEMU medium containing 10% FBS. 0.5 ml of the cell suspension was inoculated to each well of a 24-well cluster dish. […] 24 hours later, the culture solution was collected, and TSLP in the supernatant was quantified by ELISA (FIG. 3).
The KCMH-1 cells were suspended at a concentration of 1×10^5 cells/ml in an MEMU medium containing 10% FBS. […] 24 hours later, the culture solution was collected, and TSLP in the supernatant was quantified by ELISA (FIG. 4).
The KCMH-1 cells were suspended at a concentration of 1×10^5 cells/ml in an MEMU medium containing 10% FBS. […] 24 hours later, the culture solution was collected, and TSLP in the supernatant was quantified by ELISA (FIG. 5).

SMILES | expression of human TSLP mRNA by IL-1β (human TSLP mRNA) | TSLP production in the KCMH-1 cells [1]
CC1=C(/C=C/C(C)=C\C=C\C(C)=C\C(=O)O)C(C)(C)CCC1 [9-cis-retinoic acid] | inhibits | 
Cc1ccc(S(=O)(=O)/C=C/C#N)cc1 [BAY11-7082] |  | partially inhibited
